Measured values reported in PMC6581923 (Journal of Molecular Neuroscience, 2018).

How the values were obtained:
[1] = Efficiency of Traversing Eye to Retina (EtE) of FITC labeled peptides given in eye drops; assay type: in vivo, rat (male)
Procedure: In order to trace the drugs, peptides were labeled with fluorescein isothiocyanate (FITC) using a FITC Protein Labeling Kit from ChangRu Biotech Ltd. (Guangzhou, China) according to the manufacturer’s protocol. After the labeling reaction, gel filtration was used to remove the free FITC. In order to determine the amount of the residual free FITC, the peptides were submitted to ultrafiltration using Amicon Ultra – 0.5 mL (Millipore, USA) with a molecular sieve of 2000 Da. After centrifugation (1000×g, 10 min) the peptide was subjected to fluorescence measurements performed with the multi-wavelength scanner Victor 3 (GE, USA) at the excitation of 495 nm and the emission of 520 nm. Protein concentrations were determined using the K4000 Bradford Protein Quantification Kit (Innovative, Guangzhou, China). The labeling efficiency was calculated using the following formula: label efficiency (LE) = fluorescence value (FV)/peptide mass (mol) (PM), representing the fluorescence intensity (AU) per mol of peptide (mol).
Male rats with body weight from 160 to 180 g were purchased from the Medical and Experimental Animal Center (Guangdong, China). Rats were randomly assigned to one of the experimental groups (7 rats per group) and subjected to eye drops with FITC labeled peptides (100 nmol/kg) and PBS as control. Rats were sacrificed by anesthesia 2 h after the eye drop administration and the retina was separated, weighed, washed three times with PBS and divided into two parts. One part was prepared on the glass slide with glycerin and subjected to fluorescence microscopic observation of FITC with 495 nm excitation/520 nm emission. All images, focused on the left upper regions of the retina, were taken with 500 ms exposure time. The other part of the retina was subjected to grinding and ultrasonication in PBS at a concentration of 100 mg weight tissue per milliliter of PBS. The supernatant was collected by centrifugation and the fluorescence intensity in the supernatant (100 uL) was determined. The valid fluorescence intensity (FI) for each sample treated with FITC labeled peptide was corrected by subtracting the fluorescence value of the sample treated with PBS, which was used as a blank background. The Efficiency of Traversing Eye to Retina (EtE) was expressed as the percentages of the FITC labeled peptide mass in the retina to the total FITC labeled peptide mass. The EtE was calculated using the following formula: EtE = tFI/LE/PW × 100% (tFI presents the fluorescence intensity of retina (arbitration unit, AU); LE presents the label efficiency of each peptide which has been determined above; PW presents the peptide mass (mole)).
Fig. 1 The efficiency of FITC labeled PACAP/PACAP-TAT (a, b) and VIP/VIP-TAT (c, d) traversing to retina given in eye drops. The retina was separated 2 h after the eye drops and submitted to the fluorescence microscopic observation of FITC fluorescence signal (A, C) and the calculation of Efficiency of Traversing Eye to Retina (EtE) (b, d). The data are means ± SEM of four experiments

[2] = system: retina (BCCAO-induced retinopathy); assay: Number of cells in retinal nuclear layers and GCL after BCCAO, eye drops; assay type: in vivo, rat (male); conditions: eye drops 1 μg/drop, twice a day, five days, vs BCCAO-induced degenerated retinas, 14 days
Procedure: Adult male rat litters were housed in the animal facility in individual cages in a 12 h light-dark cycle with food and water ad libitum. Animal housing, care and application of experimental procedures were in accordance with institutional guidelines under approved protocols (No: BA02/2000–26/2017, University of Pecs). Under isoflurane anesthesia, common carotid arteries were exposed on both sides through a midline incision and then ligated with a 3–0 filament. A group of animals (sham group) underwent all steps of the operating procedure except ligation of the carotid arteries. Immediately following the operation, the right eye of the animals was treated with derivatives of PACAP (PACAP-TAT /n = 17/ or VIP-TAT /n = 17/) eye drops (1 μg/drop). Dose and schedule of the eye drop treatments were based on our previous experiments (Werling et al. [2016]). In the experiment for histological analysis, the different derivatives were dissolved in benzalkonium solution for ophthalmic use (solutio ophthalmica cum benzalkonio (SOCB)). The left eye, serving as a control, was treated with vehicle containing neither PACAP-TAT nor VIP-TAT. Animals were treated for five consecutive days, twice a day with one drop of drug, under brief isoflurane anesthesia (max. 5 min).
Fourteen days after the operation, rats (n = 10 SHAM and n = 24 BCCAO) were killed with anesthetic and the eyes were processed for histology. The eyes were removed and the retinas were solved in phosphate buffered saline (PBS), fixed in 4% paraformaldehyde dissolved in 0.1 M phosphate buffer (PB) (Sigma, Budapest, Hungary) and embedded in Durcupan ACM resin (Sigma, Budapest, Hungary). Retinas were cut at 2 μm and stained with toluidine blue dye (Sigma, Hungary). Sections were mounted in DPX medium (Sigma, Hungary) and photographs were taken with a digital CCD camera using the Spot program. Central retinal areas within 1 mm from the optic nerve were used (n = 5 measurements from one tissue block). The following parameters were measured: (i) cross-section of the retina from the outer limiting membrane (OLM) to the inner limiting membrane (ILM), (ii) the width of individual retinal layers (outer nuclear layer [ONL], outer plexiform layer [OPL], inner nuclear layer [INL], inner plexiform layer [IPL]), (iii) the number of cells/100 μm section length in the GCL, and the (iv) number of cells/[…]. Results are presented as mean ± SEM. Statistical comparisons were made using the two-way ANOVA test followed by Tukey’s post hoc analysis.
Fig. 5 Quantification of the number of cells/100 μm GCL length (a), the number of cells/500 μm^2 ONL (b) and INL (c) areas in SHAM+SOCB, in SHAM+PACAP-TAT, in BCCAO+SOCB, and in BCCAO+PACAP-TAT animals. Statistical significance (*p < 0.05 vs. SHAM+SOCB retinas, #p < 0.05 vs. BCCAO+SOCB retinas) was calculated by two-way ANOVA followed by Bonferroni’s post hoc test
Fig. 7 Quantification of the number of cells/100 μm GCL length (a), the number of cells/500 μm^2 ONL (b) and INL (c) areas in SHAM+SOCB, in SHAM+VIP-TAT, in BCCAO+SOCB, and in BCCAO+VIP-TAT animals. Statistical significance (*p < 0.05 vs. SHAM+SOCB retinas, #p < 0.05 vs. BCCAO+SOCB retinas) was calculated by two-way ANOVA followed by Bonferroni’s post hoc test

## CC[C@H](C)[C@H](NC(=O)[C@H](CO)NC(=O)[C@H](CC(N)=O)NC(=O)[C@H](CC(C)C)NC(=O)[C@H](Cc1ccc(O)cc1)NC(=O)[C@H](CCCCN)NC(=O)[C@H](CCCCN)NC(=O)[C@@H](NC(=O)[C@H](C)NC(=O)[C@H](CCSC)NC(=O)[C@H](CCC(N)=O)NC(=O)[C@H](CCCCN)NC(=O)[C@H](CCCNC(=N)N)NC(=O)[C@H](CC(C)C)NC(=O)[C@H](CCCNC(=N)N)NC(=O)[C@@H](NC(=O)[C@H](Cc1ccc(O)cc1)NC(=O)[C@H](CC(N)=O)NC(=O)[C@H](CC(=O)O)NC(=O)[C@@H](NC(=O)[C@H](Cc1ccccc1)NC(=O)[C@@H](NC(=O)[C@H](C)NC(=O)[C@H](CC(=O)O)NC(=O)[C@H](CO)NC(=O)[C@@H](N)Cc1c[nH]cn1)C(C)C)[C@@H](C)O)[C@@H](C)O)C(C)C)C(=O)N[C@@H](CC(C)C)C(=O)N[C@@H](CC(N)=O)C(=O)NCC(=O)N[C@@H](CCCNC(=N)N)C(=O)N[C@@H](CCCCN)C(=O)N[C@@H](CCCCN)C(=O)N[C@@H](CCCNC(=N)N)C(=O)N[C@@H](CCCNC(=N)N)C(=O)N[C@@H](CCC(N)=O)C(=O)N[C@@H](CCCNC(=N)N)C(=O)N[C@@H](CCCNC(=N)N)C(=O)N[C@@H](CCCNC(=N)N)C(=O)N1CCC[C@H]1C(=O)N[C@@H](CCC(N)=O)C(=O)O [VIP-TAT]
[1]; FITC labeled peptides, eye drops 100 nmol/kg, retina separated 2 h after, fluorescence 495 nm excitation/520 nm emission, % of FITC labeled peptide mass in retina to total, means ± SEM of four experiments (7 rats per group)
  Efficiency of Traversing Eye to Retina (EtE): 3.05 ± 0.58%
[1]; PACAP-TAT/VIP-TAT vs PACAP/VIP, respectively, eye drops 100 nmol/kg, 2 h
  EtE relative to the untagged peptide: about three-fold that of PACAP/VIP
[1]; fluorescence microscopy of retina 2 h after eye drops of FITC labeled peptides (100 nmol/kg), vs PACAP/VIP
  FITC fluorescence density per area unit in the retina: much higher than in retinas treated with eye drops of PACAP/VIP
[2]
  Number of cells in the GCL/100 μm after BCCAO: reduced cell loss in almost all nuclear layers, except in the ONL/500 μm2
  Number of cells in the INL/500 μm2 after BCCAO: reduced cell loss in almost all nuclear layers, except in the ONL/500 μm2
